In ChEMBL document CHEMBL1909046, “DrugMatrix in vitro pharmacology data”:

Assays:
[1] = target: 5-hydroxytryptamine receptor 2B (Homo sapiens, UniProt P41595); assay type: cell membranes, CHO-K1, Membrane; further: in other assays of this panel Not Active means under 50% inhibition at 10 µM
Cannabinoid receptor 1 = Cannabinoid receptor 1 (Homo sapiens, UniProt P21554); assay type: cell membranes, Membrane; settings: chem-1; further: in other assays of this panel Not Active means under 50% inhibition at 10 µM
Sequence of Cannabinoid receptor 1 (P21554 whole entry): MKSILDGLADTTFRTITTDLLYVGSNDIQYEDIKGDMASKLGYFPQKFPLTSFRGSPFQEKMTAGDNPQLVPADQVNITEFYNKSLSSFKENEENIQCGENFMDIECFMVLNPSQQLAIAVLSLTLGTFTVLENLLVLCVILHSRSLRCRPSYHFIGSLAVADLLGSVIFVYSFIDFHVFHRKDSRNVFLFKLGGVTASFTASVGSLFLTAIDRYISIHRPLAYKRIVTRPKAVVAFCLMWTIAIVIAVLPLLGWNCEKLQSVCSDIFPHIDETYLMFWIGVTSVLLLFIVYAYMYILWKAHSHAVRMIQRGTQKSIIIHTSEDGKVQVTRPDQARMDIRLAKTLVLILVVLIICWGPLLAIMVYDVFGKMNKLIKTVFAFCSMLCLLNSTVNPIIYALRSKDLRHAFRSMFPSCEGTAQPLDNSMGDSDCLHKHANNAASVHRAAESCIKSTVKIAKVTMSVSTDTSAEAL

D(3) dopamine receptor = D(3) dopamine receptor (Homo sapiens, UniProt P35462); assay: DRUGMATRIX: Dopamine D3 radioligand binding (ligand: [3H] Spiperone); assay type: cell membranes, CHO, Membrane
Sequence of D(3) dopamine receptor (P35462 whole entry): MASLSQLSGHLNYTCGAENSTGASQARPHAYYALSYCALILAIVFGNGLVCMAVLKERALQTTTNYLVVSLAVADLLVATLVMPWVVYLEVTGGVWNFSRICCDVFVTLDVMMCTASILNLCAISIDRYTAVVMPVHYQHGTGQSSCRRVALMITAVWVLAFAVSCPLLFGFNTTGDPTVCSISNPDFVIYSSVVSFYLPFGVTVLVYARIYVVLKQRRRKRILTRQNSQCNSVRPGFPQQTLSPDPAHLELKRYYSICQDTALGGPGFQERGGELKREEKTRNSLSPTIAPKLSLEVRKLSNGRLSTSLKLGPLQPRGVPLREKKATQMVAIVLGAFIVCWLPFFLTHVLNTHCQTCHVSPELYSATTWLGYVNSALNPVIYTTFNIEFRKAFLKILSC

[2] = DRUGMATRIX: Imidazoline I2, Central radioligand binding (ligand: [3H] Idazoxan); assay type: cell membranes, Rattus norvegicus, Wistar, Cerebral cortex, Membrane; settings: Not Active = under 50% inhibition at 10 µM
Cytochrome P450 1A2 = target: T1, Cytochrome P450 1A2 (Homo sapiens, UniProt P05177); settings: bti-tn-5b1-4; further: in other assays of this panel Not Active means under 50% inhibition at 10 µM
T1 sequence (P05177 whole entry): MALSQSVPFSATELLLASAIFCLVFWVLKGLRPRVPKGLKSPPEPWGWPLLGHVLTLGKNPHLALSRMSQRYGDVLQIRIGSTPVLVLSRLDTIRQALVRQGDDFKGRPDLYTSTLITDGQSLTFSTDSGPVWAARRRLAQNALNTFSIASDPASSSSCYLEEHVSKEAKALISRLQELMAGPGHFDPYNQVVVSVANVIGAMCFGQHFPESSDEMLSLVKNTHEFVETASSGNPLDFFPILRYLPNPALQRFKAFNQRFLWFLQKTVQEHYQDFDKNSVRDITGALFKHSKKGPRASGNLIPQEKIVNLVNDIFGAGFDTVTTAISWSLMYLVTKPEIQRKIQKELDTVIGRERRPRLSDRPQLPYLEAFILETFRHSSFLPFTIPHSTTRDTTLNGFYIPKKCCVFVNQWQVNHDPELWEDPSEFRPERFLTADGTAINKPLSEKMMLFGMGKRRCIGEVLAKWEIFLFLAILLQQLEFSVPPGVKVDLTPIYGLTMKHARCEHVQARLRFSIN

Cytochrome P450 3A4 = Cytochrome P450 3A4 (Homo sapiens, UniProt P08684); settings: bti-tn-5b1-4; further: in other assays of this panel Not Active means under 50% inhibition at 10 µM
Sequence of Cytochrome P450 3A4 (P08684 whole entry): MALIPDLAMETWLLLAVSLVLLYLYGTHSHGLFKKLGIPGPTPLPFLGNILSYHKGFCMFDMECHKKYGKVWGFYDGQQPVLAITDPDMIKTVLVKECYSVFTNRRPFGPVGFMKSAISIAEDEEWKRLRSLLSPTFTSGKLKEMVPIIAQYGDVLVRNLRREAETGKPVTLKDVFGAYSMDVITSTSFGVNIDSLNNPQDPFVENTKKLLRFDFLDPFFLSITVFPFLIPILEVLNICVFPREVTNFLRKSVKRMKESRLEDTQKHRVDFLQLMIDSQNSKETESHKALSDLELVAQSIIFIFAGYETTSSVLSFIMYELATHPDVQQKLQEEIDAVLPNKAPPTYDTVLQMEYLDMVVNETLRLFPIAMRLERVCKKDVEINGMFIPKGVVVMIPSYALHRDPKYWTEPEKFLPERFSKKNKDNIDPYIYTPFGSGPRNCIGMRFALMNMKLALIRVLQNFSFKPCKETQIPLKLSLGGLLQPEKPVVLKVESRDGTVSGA

Sequence of 5-hydroxytryptamine receptor 2B (P41595 whole entry): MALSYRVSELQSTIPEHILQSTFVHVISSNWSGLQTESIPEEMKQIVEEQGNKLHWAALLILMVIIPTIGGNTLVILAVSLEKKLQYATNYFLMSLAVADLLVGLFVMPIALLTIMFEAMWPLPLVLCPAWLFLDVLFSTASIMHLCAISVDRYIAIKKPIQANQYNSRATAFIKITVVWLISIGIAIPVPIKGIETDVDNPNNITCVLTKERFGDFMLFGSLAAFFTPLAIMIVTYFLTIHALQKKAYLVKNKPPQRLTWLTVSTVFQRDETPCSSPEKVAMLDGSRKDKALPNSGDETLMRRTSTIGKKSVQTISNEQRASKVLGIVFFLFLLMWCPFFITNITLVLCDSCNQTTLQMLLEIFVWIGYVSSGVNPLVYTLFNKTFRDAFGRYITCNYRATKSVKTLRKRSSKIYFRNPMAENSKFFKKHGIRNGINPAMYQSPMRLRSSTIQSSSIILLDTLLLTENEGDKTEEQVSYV

Compound	IC50 ([1]; cho-k1)	IC50 (Cannabinoid receptor 1)	IC50 (D(3) dopamine receptor; cho)	IC50 [2]	Ki [2]	IC50 (Cytochrome P450 1A2)	Ki (Cytochrome P450 1A2)	IC50 (Cytochrome P450 3A4)	Ki (Cytochrome P450 3A4)	IC50 ([1]; read-out: IC50) [nM]	Ki ([1]; read-out: Ki) [nM]	IC50 (D(3) dopamine receptor; read-out: IC50) [nM]	Ki (D(3) dopamine receptor; read-out: Ki) [nM]	Ki ([1]; cho-k1)	Ki (Cannabinoid receptor 1)	Ki (D(3) dopamine receptor; cho)
CN(C(=O)CCCOc1ccc2[nH]c(=O)ccc2c1)C1CCCCC1 [CILOSTAMIDE]	Not Active	Not Active	Not Active	Not Active	Not Active	Not Active	Not Active	Not Active	Not Active	–	–	–	–	–	–	–
CC(C)(Oc1ccc(C2CC2(Cl)Cl)cc1)C(=O)O (centres undefined) [CIPROFIBRATE]	Not Active	Not Active	Not Active	Not Active	Not Active	Not Active	Not Active	Not Active	Not Active	–	–	–	–	–	–	–
CCc1oc2ccccc2c1C(=O)c1cc(Br)c(O)c(Br)c1 [BENZBROMARONE]	–	Not Active	Not Active	Not Active	Not Active	Not Active	Not Active	Not Active	Not Active	1800	1150	–	–	–	–	–
CNC(=C[N+](=O)[O-])NCCSCc1csc(CN(C)C)n1 [NIZATIDINE]	Not Active	Not Active	Not Active	Not Active	Not Active	Not Active	Not Active	Not Active	Not Active	–	–	–	–	–	–	–
CC(=O)O[C@]1(C(C)=O)CC[C@H]2[C@@H]3C=C(Cl)C4=CC(=O)[C@@H]5C[C@@H]5[C@]4(C)[C@H]3CC[C@@]21C [CYPROTERONE ACETATE]	Not Active	Not Active	Not Active	Not Active	Not Active	Not Active	Not Active	Not Active	Not Active	–	–	–	–	–	–	–
CN(Cc1cnc2nc(N)nc(N)c2n1)c1ccc(C(=O)N[C@@H](CCC(=O)O)C(=O)O)cc1 [METHOTREXATE]	Not Active	Not Active	Not Active	Not Active	Not Active	Not Active	Not Active	Not Active	Not Active	–	–	–	–	–	–	–
CC(CCc1ccc(O)cc1)NCCc1ccc(O)c(O)c1 (centres undefined) [DOBUTAMINE]	Not Active	Not Active	–	Not Active	Not Active	Not Active	Not Active	Not Active	Not Active	–	–	4990	1690	–	–	–
Nc1nc(Cl)nc2c1ncn2[C@H]1C[C@H](O)[C@@H](CO)O1 [CLADRIBINE]	Not Active	Not Active	Not Active	Not Active	Not Active	Not Active	Not Active	Not Active	Not Active	–	–	–	–	–	–	–
Cc1cccc(Nc2cc(Cl)nc(SCC(=O)O)n2)c1C [PIRINIXIC ACID]	Not Active	Not Active	Not Active	Not Active	Not Active	Not Active	Not Active	Not Active	Not Active	–	–	–	–	–	–	–
INSULIN HUMAN	Not Active	Not Active	Not Active	Not Active	Not Active	Not Active	Not Active	Not Active	Not Active	–	–	–	–	Not Active	Not Active	Not Active
CCn1cc(C(=O)O)c(=O)c2cc(F)c(N3CCNCC3)nc21 [ENOXACIN]	Not Active	Not Active	Not Active	Not Active	Not Active	Not Active	Not Active	Not Active	Not Active	–	–	–	–	–	–	–
O=C(O)c1cc(=O)c2c(OCC(O)COc3cccc4oc(C(=O)O)cc(=O)c34)cccc2o1 [CROMOLYN]	Not Active	Not Active	Not Active	Not Active	Not Active	Not Active	Not Active	Not Active	Not Active	–	–	–	–	–	–	–
CC(=O)OCC(CCn1cnc2cnc(N)nc21)COC(C)=O [FAMCICLOVIR]	Not Active	Not Active	Not Active	Not Active	Not Active	Not Active	Not Active	Not Active	Not Active	–	–	–	–	–	–	–
O=P1(N(CCCl)CCCl)NCCCO1 (centres undefined) [CYCLOPHOSPHAMIDE ANHYDROUS]	Not Active	Not Active	Not Active	Not Active	Not Active	Not Active	Not Active	Not Active	Not Active	–	–	–	–	–	–	–
O=c1cc(-c2ccccc2)oc2ccc3ccccc3c12 [BETA-NAPHTHOFLAVONE]	Not Active	Not Active	Not Active	Not Active	Not Active	Not Active	Not Active	Not Active	Not Active	–	–	–	–	–	–	–
CC(C)(Sc1cc(C(C)(C)C)c(O)c(C(C)(C)C)c1)Sc1cc(C(C)(C)C)c(O)c(C(C)(C)C)c1 [PROBUCOL]	Not Active	Not Active	Not Active	Not Active	Not Active	Not Active	Not Active	Not Active	Not Active	–	–	–	–	–	–	–
CO[C@@]1(NC(=O)CSCC#N)C(=O)N2C(C(=O)O)=C(CSc3nnnn3C)CS[C@@H]21 [CEFMETAZOLE]	Not Active	Not Active	Not Active	Not Active	Not Active	Not Active	Not Active	Not Active	Not Active	–	–	–	–	–	–	–
CC(=O)O[C@]1(C(C)=O)CC[C@H]2[C@@H]3C=C(C)C4=CC(=O)CC[C@]4(C)[C@H]3CC[C@@]21C [MEGESTROL ACETATE]	Not Active	Not Active	Not Active	Not Active	Not Active	Not Active	Not Active	Not Active	Not Active	–	–	–	–	–	–	–
CC(C)(C)c1ccc(S(=O)(=O)/C=C/C#N)cc1 [BAY-11-7085]	Not Active	Not Active	–	Not Active	Not Active	Not Active	Not Active	Not Active	Not Active	–	–	3460	1170	–	–	–
O=C(c1ccccc1Cl)N1CCC(Cc2ccccc2)CC1	–	Not Active	Not Active	Not Active	Not Active	Not Active	Not Active	Not Active	Not Active	1510	960	–	–	–	–	–
CCOC(=O)[C@H](CCc1ccccc1)N[C@@H](C)C(=O)N1Cc2ccccc2C[C@H]1C(=O)O	Not Active	Not Active	Not Active	Not Active	Not Active	Not Active	Not Active	Not Active	Not Active	–	–	–	–	–	–	–
Cc1cccc(Nc2ccccc2C(=O)O)c1C [MEFENAMIC ACID]	Not Active	Not Active	Not Active	Not Active	Not Active	Not Active	Not Active	Not Active	Not Active	–	–	–	–	–	–	–
COC(=O)c1ccccc1O [METHYL SALICYLATE]	Not Active	Not Active	Not Active	Not Active	Not Active	Not Active	Not Active	Not Active	Not Active	–	–	–	–	–	–	–
CC[C@H](C)C(=O)O[C@H]1C[C@H](O)C=C2C=C[C@H](C)[C@H](CC[C@@H](O)C[C@@H](O)CC(=O)O)[C@H]21 [PRAVASTATIN]	Not Active	Not Active	Not Active	Not Active	Not Active	Not Active	Not Active	Not Active	Not Active	–	–	–	–	–	–	–
C[C@]12C/C(=C/O)C(=O)C[C@@H]1CC[C@@H]1[C@@H]2CC[C@@]2(C)[C@H]1CC[C@]2(C)O [OXYMETHOLONE]	Not Active	Not Active	Not Active	Not Active	Not Active	Not Active	Not Active	Not Active	Not Active	–	–	–	–	–	–	–
Clc1cc2c(cc1Cl)Oc1cc(Cl)c(Cl)cc1O2 [2,3,7,8-TETRACHLORODIBENZO-P-DIOXIN]	Not Active	Not Active	Not Active	Not Active	Not Active	Not Active	Not Active	Not Active	Not Active	–	–	–	–	–	–	–
OCCO [ETHYLENE GLYCOL]	Not Active	Not Active	Not Active	Not Active	Not Active	Not Active	Not Active	Not Active	Not Active	–	–	–	–	–	–	–
O=C(/C=C/c1ccc(O)c(O)c1)OCCc1ccccc1 [CAFFEIC ACID PHENETHYL ESTER]	Not Active	Not Active	Not Active	Not Active	Not Active	Not Active	Not Active	Not Active	Not Active	–	–	–	–	–	–	–
